The results in this text go back to patent US20110206607A1, “IMIDAZOL (1,2-A)PYRIDINES AND RELATED COMPOUNDS WITH ACTIVITY AT CANNABINOID CB2 RECEPTORS” (priority 2007, published 2011).

For the assay, the target named is T1, human CB2 (Homo sapiens, UniProt P34972).
T1 construct: expressed in transfected cells; host or cells: HEK-293T (transient transfection, membrane preparation)
As to the kind of experiment: CB2 receptor binding assay, block of [3H]-CP 55,940 binding. As to conditions: membranes of HEK-293T cells transfected with human CB2 cDNA; 1.5 nM [3H]-CP 55,940. How it is done:
Membrane preparation—HEK-293T cells were cultured according to ATCC (Manassas, Va.) guidelines and transfected with human CB2 cDNA (SEQ ID NO:1) (Genbank X74328), operably linked to the SV40 promoter, using Polyfect (Qiagen, Valencia, Calif.) or Fugene (Roche, Nutley, N.J.) according to manufacturer's instructions. 48 h after transfection cells were harvested in ice cold membrane buffer (20 mM HEPES, 6 mM MgCl2, 1 mM EDTA, pH 7.2) using a cell scraper. Cells were transferred to a nitrogen cavitation chamber and a pressure of […] was applied for 30 min. The pressure was released and the cell debris was collected and centrifuged at 1000 g at 4° C. for 10 min. The supernatant was collected and the spin was repeated until the supernatant was free of precipitate. Membranes were then pelleted by centrifugation at 12.000 g at 4° C. for 20 min. Membranes were resuspended in an appropriate amount of membrane buffer. The membrane concentration was determined using a BioRad (Hercules, Calif.) protein assay dye reagent according to manufacturer's instructions. Membranes were diluted to 1 mg/ml and aliquots snap-frozen in liquid nitrogen and store at −80° C.
Binding assay—0.5-10 ng of membranes were incubated in binding buffer (50 mM Tris, 0.5 mM EDTA, 0.1% BSA, pH 7.4) in the presence of 1.5 nM radioligand ([^3H]-CP 55,940 Perkin Elmer) and varying concentrations of ligands (total volume 100 μL in a 96 well plate). Membranes were filtered onto a 96 well GF/B filterplate (Packard Bioscience, Shelton, Conn.) and washed with […] wash buffer (25 mM HEPES, 1 mM CaCl2, 5 mM MgCl2, 0.25M NaCl) using a Filtermate 196 Harvester (Packard Instruments, Downers Grove, Ill.). The filter plates were dried under a heat lamp before addition of 50 μL of scintillation fluid to each well (Microscint 20, Packard, Shelton, Conn.). Plates were counted on a Topcount NXT (Packard, Shelton, Conn.).
Data Analysis—Graphs were plotted and KD values were determined by nonlinear regression analysis using Prism software (GraphPad version 4.0, San Diego, Calif., USA).

T1 sequence (P34972 whole entry): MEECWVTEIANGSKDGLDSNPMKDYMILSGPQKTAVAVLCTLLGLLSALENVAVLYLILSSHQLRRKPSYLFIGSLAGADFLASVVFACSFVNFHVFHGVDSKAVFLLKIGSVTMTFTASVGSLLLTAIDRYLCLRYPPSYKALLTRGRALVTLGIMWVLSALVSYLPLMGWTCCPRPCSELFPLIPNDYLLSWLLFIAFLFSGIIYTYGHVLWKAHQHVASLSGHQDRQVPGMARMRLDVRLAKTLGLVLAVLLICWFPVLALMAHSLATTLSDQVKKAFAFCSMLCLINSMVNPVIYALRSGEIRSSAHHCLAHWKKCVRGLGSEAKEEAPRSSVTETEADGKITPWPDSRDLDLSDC

In turn, `Fc1cccc(Cl)c1-c1nc2ccccn2c1Nc1ccc2c(c1)OCO2` [CR-128] gave a pKi of 6.7.

`Cc1cccn2c(Nc3ccc4c(c3)OCO4)c(-c3c(F)cccc3Cl)nc12` [CR-129]: the pKi came out at 6.4.

`COc1cc(-c2nc3cc(C)ccn3c2Nc2ccc3c(c2)OCO3)cc(F)c1O` [CR-130] returned a negative-log Ki (pKi) of 6.1.

`COc1cccc2nc(-c3c(C)cc(OCC[18F])cc3C)c(Nc3ccc4c(c3)OCCO4)n12` [CR-132] had an inhibitory constant (Ki) of 5.01 nM.

`COc1cccc2nc(-c3c(F)ccc(OCC[18F])c3F)c(Nc3ccc4c(c3)OCCO4)n12` [CR-133] showed an inhibition constant Ki of 1.58 nM. This Ki lies about 3.2-fold lower than the previous one.

Regarding `COc1cccc2nc(-c3c(F)ccc(OC[18F])c3Cl)c(Nc3ccc4c(c3)OCCO4)n12` [CR-134], the Ki is 1 nM.

Regarding `Fc1cncc(F)c1-c1nc2cccc(OCC[18F])n2c1Nc1ccc2c(c1)OCCO2` [CR-135], the inhibitory constant (Ki) is 39.8 nM. This Ki lies about 40-fold higher than the previous one.

`COc1cccc2nc(-c3c(C)cc(OC[18F])cc3C)c(Nc3ccc4c(c3)OCCO4)n12` [CR-136] displayed a pKi of 9.5.

The molecule `COc1cnc2nc(-c3c(F)cncc3F)c(Nc3ccc4c(c3)OCCO4)n2c1` [CR-137] had a pKi of 6.5.

On to `COc1cccc2nc(-c3c(F)cc(O)cc3Cl)c(Nc3ccc4c(c3)OCCO4)n12` [CR-138], for which the negative logarithm of the Ki (pKi) was 8.3.

In turn, `COc1cccc2nc(-c3c(C)cncc3C)c(Nc3ccc4c(c3)OCCO4)n12` [CR-139] displayed a pKi of 8.2.
